# Key:
# TGFBR1 = target: T1, TGFBR1 (Homo sapiens, UniProt P36897); test: Kinase activity assay (HTRF or ADP-Glo); type: biochemical
# T1 sequence (P36897 34-503): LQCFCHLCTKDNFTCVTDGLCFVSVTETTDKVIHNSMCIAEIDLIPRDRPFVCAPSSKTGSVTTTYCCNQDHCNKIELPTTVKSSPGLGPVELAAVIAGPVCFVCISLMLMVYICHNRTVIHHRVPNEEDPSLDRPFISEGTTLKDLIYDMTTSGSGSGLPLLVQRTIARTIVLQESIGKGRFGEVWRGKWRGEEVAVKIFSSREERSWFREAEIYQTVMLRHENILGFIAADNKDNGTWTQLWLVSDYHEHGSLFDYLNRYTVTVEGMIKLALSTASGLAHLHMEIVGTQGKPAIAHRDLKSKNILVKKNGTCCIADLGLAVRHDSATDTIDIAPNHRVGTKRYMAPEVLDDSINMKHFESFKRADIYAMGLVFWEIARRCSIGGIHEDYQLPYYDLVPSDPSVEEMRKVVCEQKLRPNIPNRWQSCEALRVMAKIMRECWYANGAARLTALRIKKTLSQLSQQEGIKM
# Experimental: (§1) A total of 330 kinase candidates (15-50 nM, 2.5 µL) were mixed with compound II-1 (2.5 mM, 25 nL, prepared in DMSO) and incubated at 25 °C for 10 minutes. Then, a mixture of kinase peptide substrate (0.2 mg/mL; supplier: GenScript) and ATP (10-60 µM; supplier: Promega; product number: V915B) was added (total 2.5 µL, prepared in assay buffer), and the reaction was carried out at 25 °C for 60-120 minutes. Finally, the reaction products were quantified using HTRF1 or ADP-Glo2 methods. During the kinase activity assay, the consumption of each substrate was kept below 10%, and each kinase assay was performed in duplicate.
# BMPR2 = target: T2, BMPR2 (Homo sapiens, UniProt Q13873); test: Kinase activity assay (HTRF or ADP-Glo); type: biochemical
# T2 sequence (Q13873 27-1038): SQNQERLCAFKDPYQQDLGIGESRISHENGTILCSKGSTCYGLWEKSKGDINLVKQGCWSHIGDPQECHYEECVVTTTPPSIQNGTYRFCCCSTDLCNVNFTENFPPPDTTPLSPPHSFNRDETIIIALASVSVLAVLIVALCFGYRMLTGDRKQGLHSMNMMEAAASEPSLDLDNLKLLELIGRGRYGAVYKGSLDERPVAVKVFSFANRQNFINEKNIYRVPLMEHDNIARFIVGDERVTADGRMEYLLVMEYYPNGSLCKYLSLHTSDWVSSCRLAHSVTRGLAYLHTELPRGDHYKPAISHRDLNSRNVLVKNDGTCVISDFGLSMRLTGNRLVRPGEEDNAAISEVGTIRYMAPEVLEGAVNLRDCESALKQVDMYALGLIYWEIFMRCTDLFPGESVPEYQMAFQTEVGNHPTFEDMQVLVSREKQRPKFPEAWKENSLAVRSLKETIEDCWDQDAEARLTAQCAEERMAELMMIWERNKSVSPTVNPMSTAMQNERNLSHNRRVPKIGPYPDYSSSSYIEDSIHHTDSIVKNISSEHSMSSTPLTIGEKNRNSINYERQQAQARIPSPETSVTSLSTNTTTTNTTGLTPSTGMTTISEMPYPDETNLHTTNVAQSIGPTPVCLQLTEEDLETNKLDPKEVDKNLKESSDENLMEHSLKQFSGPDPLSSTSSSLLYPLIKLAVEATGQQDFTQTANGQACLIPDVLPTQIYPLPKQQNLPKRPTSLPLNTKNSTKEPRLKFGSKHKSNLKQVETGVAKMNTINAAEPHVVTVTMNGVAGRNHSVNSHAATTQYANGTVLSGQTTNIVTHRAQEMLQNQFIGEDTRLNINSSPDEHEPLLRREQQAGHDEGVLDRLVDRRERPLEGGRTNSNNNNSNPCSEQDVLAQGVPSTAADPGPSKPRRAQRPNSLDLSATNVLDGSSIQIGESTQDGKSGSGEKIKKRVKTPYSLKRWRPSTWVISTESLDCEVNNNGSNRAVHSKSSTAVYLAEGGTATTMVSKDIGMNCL
# Experimental: as §1
# [1] = same concentration as in the 330 kinase screen
smiles,measurement,setting,value
"O=C1CN(C(=O)c2n[nH]c3c2CCC3)[C@H]2CCCC[C@@H]2N1 [II-1, (4aS,8aS)-4-(1,4,5,6-tetrahydrocyclopenta[c]pyrazole-3-carbonyl)octahydroquinoxalin-2(1H)-one]",inhibition of TGFBR1 kinase,"TGFBR1; different concentrations, up to 12.5 µM, threefold serial dilution, Figure 1B",no inhibition
same,inhibition of kinase activity of TGFBR1,TGFBR1; [1],did not inhibit
same,inhibition of BMPR2 kinase,"BMPR2; different concentrations, up to 12.5 µM, threefold serial dilution, Figure 1C",no inhibition
same,inhibition of kinase activity of BMPR2,BMPR2; [1],did not inhibit

# Source: patent EP4717694A1, “PYRAZOLFORMYL PIPERAZINONE COMPOUND, PHARMACEUTICAL COMPOSITION AND USE THEREOF” (Iregene Therapeutics Co., Ltd., priority 2023, dated 2024)
